Data as given in patent publication US20100204132A1, “[…] USES OF PEPTIDES […] and […]” (priority 2007, published 2010).
Where no end group is shown, it is not given here.

What was measured:
[1] = system: HIV-1IIIB; assay: HIV-1 antiviral assay in CEM-SS cells (MTS readout)
[2] = system: murine spleen cells; assay: Th1/Th2 cytokine profiling assay in Ovalbumin-restimulated spleen cells; type: cell-based, Balb/c mice; details: 10 micrograms per ml, Ovalbumin restimulation, 72 hours
[3] = system: HUVEC; assay: Endothelial tube formation assay; type: cell-based, human; details: 10 micrograms per ml, 20 hours
From the text: […] control wes vehicle only. […] Raw data were expressed as average tubule lenghs in pixels±standard deviation.

[4] = system: hepatitis B virus (HBV) ayw strain; assay: HBV experimental assay system, secreted HBV DNA by TaqMan PCR; type: cell-based; details: 10 micrograms per ml; HepG2-2.2.15 cells; six days
[5] = system: Streptococcus pneumoniae; assay: Streptococcus pneumoniae growth assay; type: cell-based; details: 10 micrograms per ml; 5×10^5 CFU/mL
[6] = system: HCMV strain AD169; assay: HCMV plaque formation assay in MRC-5 cells; type: cell-based; details: 10 micrograms per ml, 7-10 days
From the text: Cells were split twic a week 1:2.
Ganciclovir was used as positive control.

[7] = system: Primary Human endothelial cells (HUVEC); assay: Endothelial cell migration assay; type: cell-based; details: 10 micrograms per ml, 22 hours
Protocol: Thereafter, designated concentration of testing peptides—10 micrograms per ml—was added in duplicate wells.

Row | Compound | antiviral activity of positive control compounds (HIV-1) [1] | change of the production of IFN-γ [2] | change of the production of IL-5 [2] | change of the production of TNF-a [2] | induction (increase) of the production of IL-2 [2] [%] | induction (increase) of the production of IL-4 [2] [%] | inhibition of the tube formation of human endothelial cells [3] [%] | inhibition of HBV replication as compared to the virus control infection [4] [%] | inhibition of the growth of Streptococcus pneumoniae [5] [%] | inhibition of HCMV plaque formation as compared to the virus control [6] | increase of the migration of human endothelial cells [7] [%]
1 | Cc1cn([C@H]2C[C@H](N=[N+]=[N-])[C@@H](CO)O2)c(=O)[nH]c1=O [AZT] | expected levels of antiviral activity |  |  |  |  |  |  |  |  |  | 
2 | CC(C)(C)NC(=O)[C@@H]1CN(Cc2cccnc2)CCN1C[C@@H](O)C[C@@H](Cc1ccccc1)C(=O)N[C@H]1c2ccccc2C[C@H]1O [indinavir] | expected levels of antiviral activity |  |  |  |  |  |  |  |  |  | 
3 | Trp-Met-Asn-Ser-Thr-Gly-Phe-Thr-Lys-Val-Cys-Gly-Ala-Pro-Pro-Cys-OH (WMNSTGFTKVCGAPPC-OH; cysteine pairing not given here) [Peptide 2] |  | did not significantly change | did not significantly change | did not significantly change | 92.6 | 87.3 | 8 | 53.2 | 100 | did not inhibit | 7
4 | Tyr-Ser-Ala-Tyr-Pro-Asp-Ser-Val-Pro-Met-Met-Ser-OH [Peptide 1] |  | did not significantly change | did not significantly change | did not significantly change | 82.2 | 74.3 | 4 | 51.1 | 100 | did not inhibit | 4
